# Reference: patent publication US12516016B2, “GPX4 inhibitors, pharmaceutical compositions thereof, and their use for treating GPX4-mediated diseases” (EUBULUS BIOTHERAPEUTICS (HONG KONG) LIMITED, priority 2020, dated 2026)
# pEC50: −log10 of the molar value.
# Test system: hepatocellular carcinoma cell line Hub-7
# Test: Cell proliferation assay (CELL-TITER GLO cell viability)
# Format: cell-based
# Conditions: 24 h, Hub-7 cells, 24 h incubation, read-out: Inhibition of Cell Proliferation EC50
# Method in brief: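 […] cells (4,000/well) seeded overnight, then exposed 24 h to compound from 10 μM in 3-fold serial dilutions. Viability read by CELL-TITER GLO luminescence; EC50 values derived.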
row,SMILES,pEC50
1,"C#CC(=O)N(c1cccc(S(C)(=O)=O)c1)C(C(=O)NC(C)(C)C)c1ccc(N)cc1 (centres unmarked) [A6, N-(1-(4-Aminophenyl)-2-(tert-butylamino)-2-oxoethyl)-N-(3-(methylsulfonyl)phenyl)propiolamide]",5.00 to 5.70
2,"CC#CC(=O)N(c1ccc2c(cnn2C)c1)C1(C(=O)NCc2ccccc2)CCOCC1 [A125, N-Benzyl-4-(N-(1-methyl-1H-indazol-5-yl)but-2-ynamido)tetrahydro-2H-pyran-4-carboxamide]",< 5.00
3,"Cn1ncc2cc(N(C(=O)C3CO3)C3(C(=O)NCc4ccccc4)CCOCC3)ccc21 (centres unmarked) [C30, N-Benzyl-4-(N-(1-methyl-1H-indazol-5-yl)oxirane-2-carboxamido)tetrahydro-2H-pyran-4-carboxamide]",< 5.00
4,"C=C(F)C(=O)N(c1ccc2c(cnn2C)c1)C1(C(=O)NCc2ccccc2)CCOCC1 [B9, N-Benzyl-4-(2-fluoro-N-(1-methyl-1H-indazol-5-yl)acrylamido)tetrahydro-2H-pyran-4-carboxamide]",< 5.00
5,"C#CC(=O)N(c1cccc(Cl)c1)C1(C(=O)NCC(=O)N2CCCC(O)C2)CCOCC1 (centres unmarked) [A183, 4-(N-(3-Chlorophenyl)propiolamido)-N-(2-(3-hydroxypiperidin-1-yl)-2-oxoethyl)tetrahydro-2H-pyran-4-carboxamide]",5.00 to 5.70
6,"C#CC(=O)N(C1CCC(=O)N(C)C1)C(C(=O)NCc1ccccc1)c1ccccc1 (centres unmarked) [A158, N-(2-(Benzylamino)-2-oxo-1-phenylethyl)-N-(1-methyl-6-oxopiperidin-3-yl)-propiolamide]",5.00 to 5.70
7,"O=C(CCl)N(c1cccc2nsnc12)C1(C(=O)NCCc2ccccc2)CCOCC1 [C29, 4-(N-(Benzo[c][1,2,5]thiadiazol-4-yl)-2-chloroacetamido)-N-phenethyltetrahydro-2H-pyran-4-carboxamide]",5.70 to 6.30
8,"C#CC(=O)N(Cc1cccc(O)c1)C1(C(=O)NCc2ccccc2)CCCC(C(=O)O)C1 (centres unmarked) [A170, 3-(Benzylcarbamoyl)-3-(N-(3-hydroxybenzyl)propiolamido)cyclohexane-1-carboxylic acid]",< 5.00
9,"Nc1ccc(N(C(=O)CCl)C(C(=O)NCCc2ccccc2)c2cccs2)cc1 (centres unmarked) [C2, N-(4-Aminophenyl)-2-chloro-N-(2-oxo-2-(phenethylamino)-1-(thiophen-2-yl)-ethyl)acetamide]",5.00 to 5.70
10,"C#CC(=O)N(c1ccc(S(N)(=O)=O)cc1)C(C(=O)NC(C)(C)C)c1ccc(N)cc1 (centres unmarked) [A11, N-(1-(4-Aminophenyl)-2-(tert-butylamino)-2-oxoethyl)-N-(4-sulfamoylphenyl)-propiolamide]",< 5.00
11,"Nc1ccc(C(C(=O)NCCc2ccccc2)N(C(=O)CCl)c2cccc(Cl)c2)cc1 (centres unmarked) [C6, 2-chloro-N-(3-chlorophenyl)-N-(1-(4-aminophenyl)-2-oxo-2-(phenethylamino)ethyl)acetamide]",5.70 to 6.30
12,"C#CC(=O)N(c1cccc(Cl)c1)C1(C(=O)NCC(=O)N2CCCC(C(=O)OC)C2)CCOCC1 (centres unmarked) [A184, Methyl 1-(2-(4-(N-(3-chlorophenyl)propiolamido)tetrahydro-2H-pyran-4-carboxamido)acetyl)piperidine-3-carboxylate]",6.30 to 7.00
13,"C=CC(=O)N(c1ccc2c(cnn2C)c1)C1(C(=O)NCc2ccccc2)CCOCC1 [B11, N-Benzyl-4-(N-(1-methyl-1H-indazol-5-yl)acrylamido)tetrahydro-2H-pyran-4-carboxamide]",< 5.00
14,"C#CC(=O)N(c1ccc(N)cc1)C(C(=O)NC(C)(C)C)c1ccc(N)cc1 (centres unmarked) [A9, N-(4-Aminophenyl)-N-(1-(4-aminophenyl)-2-(tert-butylamino)-2-oxoethyl)-propiolamide]",5.00 to 5.70
15,"C#CC(=O)N(c1cccc(OC)c1)C(C(=O)NC(C)(C)C)c1ccc(N)cc1 (centres unmarked) [A7, N-(1-(4-Aminophenyl)-2-(tert-butylamino)-2-oxoethyl)-N-(3-methoxyphenyl)-propiolamide]",6.30 to 7.00
16,"C#CC(=O)N(c1ccc(NS(C)(=O)=O)cc1)C(C(=O)NC(C)(C)C)c1ccc(N)cc1 (centres unmarked) [A17, N-(1-(4-Aminophenyl)-2-(tert-butylamino)-2-oxoethyl)-N-(4-(methyl-sulfonamido)phenyl)propiolamide]",< 5.00
17,"C#CC(=O)N(c1ccc(C(N)=O)cc1)C(C(=O)NC(C)(C)C)c1ccc(N)cc1 (centres unmarked) [A10, 4-(N-(1-(4-Aminophenyl)-2-(tert-butylamino)-2-oxoethyl)propiolamido)-benzamide]",< 5.00
18,"C#CC(=O)N(c1cccc(N)c1)C(C(=O)NCc1ccccc1)c1ccc(N)cc1 (centres unmarked) [A70, N-(3-Aminophenyl)-N-(1-(4-aminophenyl)-2-(benzylamino)-2-oxoethyl)-propiolamide]",5.70 to 6.30
19,"COc1ccc(N(C(=O)CCl)C(C(=O)NCCc2ccccc2)c2ccc(N)cc2)cc1Cl (centres unmarked) [C3, 2-(4-aminophenyl)-2-(2-chloro-N-(3-chloro-4-methoxyphenyl)acetamido)-N-phenethylacetamide]",6.30 to 7.00

# Continued, values first:
row,pEC50,SMILES
1,≥ 7.00,C#CC(=O)N(c1cccc(Cl)c1F)C(C(=O)NCc1ccccc1)c1ccc(N)cc1 (centres unmarked) [A123]
2,≥ 7.00,"C#CC(=O)N(c1cccc(Cl)c1)C(C(=O)NCc1ccccc1)c1ccccc1F (centres unmarked) [A90, N-(2-(Benzylamino)-1-(2-fluorophenyl)-2-oxoethyl)-N-(3-chlorophenyl)-propiolamide]"
3,≥ 7.00,"C#CC(=O)N(c1cccc(Cl)c1)C1(C(=O)NCc2ccccc2)CCCOC1 (centres unmarked) [A174, N-Benzyl-3-(N-(3-chlorophenyl)propiolamido)tetrahydro-2H-pyran-3-carboxamide]"
4,≥ 7.00,"C#CC(=O)N(c1ccc(OC)c(Cl)c1)C(C(=O)NC(C)(C)C)c1ccc(N)cc1 (centres unmarked) [A3, N-(1-(4-Aminophenyl)-2-(tert-butylamino)-2-oxoethyl)-N-(3-chloro-4-methoxy-phenyl)propiolamide]"
5,≥ 7.00,"C#CC(=O)N(c1cccc(Cl)c1)C(C(=O)NCc1ccc(C#N)cc1)c1ccccc1 (centres unmarked) [A114, N-(3-chlorophenyl)-N-(2-((4-cyanobenzyl)amino)-2-oxo-1-phenylethyl)propiolamide]"
6,≥ 7.00,"C#CC(=O)N(c1cccc2nsnc12)C1(C(=O)NCc2ccccc2)CCOCC1 [A161, 4-(N-(Benzo[c][1,2,5]thiadiazol-4-yl)propiolamido)-N-benzyltetrahydro-2H-pyran-4-carboxamide]"
7,≥ 7.00,"C#CC(=O)N(c1ccc2c(cnn2C)c1)C1(C(=O)NCc2ccccc2)CCCOC1 (centres unmarked) [A176, N-Benzyl-3-(N-(1-methyl-1H-indazol-5-yl)propiolamido)tetrahydro-2H-pyran-3-carboxamide]"
8,6.30 to 7.00,"O=C(NCCc1ccccc1)C(c1ccc([N+](=O)[O-])cc1)N(C(=O)CCl)c1cccc(Cl)c1 (centres unmarked) [C5, 2-chloro-N-(3-chlorophenyl)-N-(1-(4-nitrophenyl)-2-oxo-2-(phenethylamino)ethyl)acetamide]"
9,≥ 7.00,"C#CC(=O)N(c1ccc(Cl)c(Cl)c1)C1(C(=O)NCc2ccccc2)CCOCC1 [A108, N-Benzyl-4-(N-(3,4-dichlorophenyl)propiolamido)tetrahydro-2H-pyran-4-carboxamide]"
10,≥ 7.00,"C#CC(=O)N(c1cc(Cl)ccc1Cl)C(C(=O)NCc1ccccc1)c1ccccc1 (centres unmarked) [A145, N-(2-(Benzylamino)-2-oxo-1-phenylethyl)-N-(2,5-dichlorophenyl)propiolamide]"
11,≥ 7.00,"C#CC(=O)N(c1cccc(Cl)c1)C(C(=O)NCC1CC1)c1ccccc1 (centres unmarked) [A142, N-(3-Chlorophenyl)-N-(2-((cyclopropylmethyl)amino)-2-oxo-1-phenylethyl)-propiolamide]"
12,≥ 7.00,"C#CC(=O)N(c1cccc(C#N)c1)C(C(=O)NCc1ccccc1)c1ccccc1 (centres unmarked) [A100, N-(2-(Benzylamino)-2-oxo-1-phenylethyl)-N-(3-cyanophenyl)propiolamide]"
13,6.30 to 7.00,"C#CC(=O)N(c1ccc2nncn2c1)C(C(=O)NCc1ccccc1)c1ccccc1 (centres unmarked) [A105, N-([1,2,4]Triazolo[4,3-a]pyridin-6-yl)-N-(2-(benzylamino)-2-oxo-1-phenylethyl)-propiolamide]"
14,≥ 7.00,"C#CC(=O)N(c1cccc(Cl)c1)C1(C(=O)NCc2ccccc2)CCCC(=O)C1 (centres unmarked) [A172, N-Benzyl-1-(N-(3-chlorophenyl)propiolamido)-3-oxocyclohexanecarboxamide]"
15,6.30 to 7.00,"C#CC(=O)N(c1cccc(Cl)c1)C(C(=O)NC(C)(C)C)c1ccc(N)cc1 (centres unmarked) [A5, N-(1-(4-Aminophenyl)-2-(tert-butylamino)-2-oxoethyl)-N-(3-chlorophenyl)-propiolamide]"
16,≥ 7.00,"C#CC(=O)N(c1cccc(Cl)c1)C(C(=O)NCc1ccccc1)c1ccc(F)cc1 (centres unmarked) [A87, N-(2-(Benzylamino)-1-(4-fluorophenyl)-2-oxoethyl)-N-(3-chlorophenyl)-propiolamide]"
17,6.30 to 7.00,"C#CC(=O)N(c1ccc2scnc2c1)C1(C(=O)NCc2ccccc2)CCOCC1 [A155, 4-(N-(Benzo[d]thiazol-5-yl)propiolamido)-N-benzyltetrahydro-2H-pyran-4-carboxamide]"
18,6.30 to 7.00,"COC(=O)c1cccc(N(C(=O)CCl)C(C(=O)NCCc2ccccc2)c2ccc([N+](=O)[O-])cc2)c1 (centres unmarked) [C7, Methyl-3-(2-chloro-N-(1-(4-nitrophenyl)-2-oxo-2-(phenethylamino)ethyl)-acetamido)benzoate]"
19,≥ 7.00,"C#CC(=O)N(c1ccc2scnc2c1)C(C(=O)NCc1ccccc1)c1ccccc1 (centres unmarked) [A88, N-(Benzo[d]thiazol-5-yl)-N-(2-(benzylamino)-2-oxo-1-phenylethyl)-propiolamide]"
20,≥ 7.00,"C#CC(=O)N(c1ccc2c(cnn2C)c1)C1(C(=O)NCc2ccccc2)CCC(=O)CC1 [A164, N-Benzyl-1-(N-(1-methyl-1H-indazol-5-yl)propiolamido)-4-oxocyclohexane-1-carboxamide]"
21,≥ 7.00,"C#CC(=O)N(c1cc(Cl)ccc1F)C(C(=O)NCc1ccccc1)c1ccc(N)cc1 (centres unmarked) [A57, N-(1-(4-Aminophenyl)-2-(benzylamino)-2-oxoethyl)-N-(5-chloro-2-fluoro-phenyl)propiolamide]"

# Same assay, conditions: Hub-7 cells, 24 h incubation, read-out: Inhibition of Cell Proliferation EC50
row,pEC50,SMILES
1,6.30 to 7.00,"C#CC(=O)N(c1cccc(Cl)c1)[C@]1(C(=O)NCc2ccccc2)CC[C@@H](O)CC1 [A111, (1R,4R)—N-Benzyl-1-(N-(3-chlorophenyl)propiolamido)-4-hydroxycyclohexane-carboxamide]"
